Measurements from ChEMBL document CHEMBL6153110, “Peptide Double-Stapling and Arginine N-Glycosylation Triggered the Development of Therapeutic Antimicrobial Peptides Capable of Killing Drug-Resistant Bacteria in Mice” (J Med Chem, 2025).
In brackets after ≈: the same amount, converted by molar mass. Positions of bridges follow the written chain, without caps; N, C: chain ends. Non-standard residues stand in square brackets, D forms with d. Residues, ends and D or L forms follow the SMILES beside them. R8 = C=CCCCCCC[C@@](C)(N)C(=O)O; S5 = C=CCCC[C@](C)(N)C(=O)O; Abu = CC[C@H](N)C(=O)O

How the values were obtained:
Format in all cases: functional
Klebsiella pneumoniae = test: Antimicrobial activity against Klebsiella pneumoniae ATCC 13883 assessed as growth inhibition measured after 8 hrs incubation by standard broth dilution assay
Staphylococcus aureus = test: Antimicrobial activity against methicillin-resistant Staphylococcus aureus ATCC 43300 assessed as growth inhibition measured after 8 hrs incubation by standard broth dilution assay
Pseudomonas aeruginosa = test: Antimicrobial activity against Pseudomonas aeruginosa ATCC 27853 assessed as growth inhibition measured after 8 hrs incubation by standard broth dilution assay
Streptococcus pneumoniae = test: Antimicrobial activity against Streptococcus pneumoniae ATCC 49619 assessed as growth inhibition measured after 8 hrs incubation by standard broth dilution assay

Compound: CC(=O)N[C@@H](CC(C)C)C(=O)N[C@@H](CCCCN)C(=O)N[C@@H](CCCNC(=N)N)C(=O)N[C@H](C(=O)N[C@@H](Cc1c[nH]c2ccccc12)C(=O)N[C@@H](CCCCN)C(=O)N[C@@H](CCCNC(=N)N)C(=O)N[C@H](C(=O)N[C@]1(C)CCCCCC/C=C\CCC[C@@](C)(C(=O)N[C@@H](CCCNC(=N)N)C(=O)N[C@@H](CCC(N)=O)C(=O)N[C@@H](CC(C)C)C(=O)N[C@@H](CCCCN)C(=O)N[C@@H](CCCCN)C(=O)N2CCC[C@H]2C(=O)N[C@H](C(=O)N[C@@H](CCCNC(=N)N)C(N)=O)C(C)C)NC(=O)[C@H](Cc2ccc(O)cc2)NC(=O)[C@H](CCCNC(=N)N)NC(=O)[C@H](CCCCN)NC(=O)[C@H](CC(C)C)NC(=O)[C@H](CC(C)C)NC(=O)[C@H](CCCCN)NC1=O)C(C)C)C(C)C (Ac-LKRVWKRV[R8]KLLKRY[S5]RQLKKPVR-NH2; staple (Z) 9-16)
- MIC (Klebsiella pneumoniae): 38 mg/L (≈ 11.8 µM)
- MIC (Staphylococcus aureus): 9.7 mg/L (≈ 3.01 µM)
- MIC (Pseudomonas aeruginosa): 38 mg/L (≈ 11.8 µM)
- MIC (Streptococcus pneumoniae): 9.6 mg/L (≈ 2.98 µM)

Compound: CC(=O)N[C@@H](CC(C)C)C(=O)N[C@@H](CCCCN)C(=O)N[C@@H](CCCNC(=N)N)C(=O)N[C@H](C(=O)N[C@@H](Cc1c[nH]c2ccccc12)C(=O)N[C@@H](CCCCN)C(=O)N[C@@H](CCCNC(=N)N)C(=O)N[C@H](C(=O)N[C@@]1(C)CCC/C=C\CCC[C@@](C)(C(=O)N[C@@H](CCCNC(=N)N)C(=O)N[C@@H](Cc2ccc(O)cc2)C(=O)N[C@@H](Cc2c[nH]c3ccccc23)C(=O)N[C@@H](CCCNC(=N)N)C(=O)N[C@@H](CCC(N)=O)C(=O)N[C@@H](CC(C)C)C(=O)N[C@@H](CCCCN)C(=O)N[C@@H](CCCCN)C(=O)N2CCC[C@H]2C(=O)N[C@H](C(=O)N[C@@H](CCCNC(=N)N)C(N)=O)C(C)C)NC(=O)[C@H](CC(C)C)NC(=O)[C@H](CC(C)C)NC(=O)[C@H](CCCCN)NC1=O)C(C)C)C(C)C (Ac-LKRVWKRV[S5]KLL[S5]RYWRQLKKPVR-NH2; staple (Z) 9-13)
- MIC (Klebsiella pneumoniae): 38 mg/L (≈ 11.7 µM)
- MIC (Staphylococcus aureus): 2.5 mg/L (≈ 0.771 µM)
- MIC (Pseudomonas aeruginosa): 5 mg/L (≈ 1.54 µM)
- MIC (Streptococcus pneumoniae): 9.6 mg/L (≈ 2.96 µM)

Compound: CC(=O)N[C@@H](CC(C)C)C(=O)N[C@@H](CCCCN)C(=O)N[C@@H](CCCNC(=N)N)C(=O)N[C@H](C(=O)N[C@@H](Cc1c[nH]c2ccccc12)C(=O)N[C@@H](CCCCN)C(=O)N[C@@H](CCCNC(=N)N)C(=O)N[C@]1(C)CCCCCC/C=C\CCC[C@@](C)(C(=O)N[C@@H](Cc2c[nH]c3ccccc23)C(=O)N[C@@H](CCCNC(=N)N)C(=O)N[C@@H](CCC(N)=O)C(=O)N[C@@H](CC(C)C)C(=O)N[C@@H](CCCCN)C(=O)N[C@@H](CCCCN)C(=O)N2CCC[C@H]2C(=O)N[C@H](C(=O)N[C@@H](CCCNC(=N)N)C(N)=O)C(C)C)NC(=O)[C@H](CCCNC(=N)N)NC(=O)[C@H](CCCCN)NC(=O)[C@H](CC(C)C)NC(=O)[C@H](CC(C)C)NC(=O)[C@H](CCCCN)NC(=O)[C@H](Cc2ccccc2)NC1=O)C(C)C (Ac-LKRVWKR[R8]FKLLKR[S5]WRQLKKPVR-NH2; staple (Z) 8-15)
- MIC (Klebsiella pneumoniae): 38 mg/L (≈ 11.5 µM)
- MIC (Staphylococcus aureus): 9.7 mg/L (≈ 2.94 µM)
- MIC (Pseudomonas aeruginosa): 5 mg/L (≈ 1.52 µM)
- MIC (Streptococcus pneumoniae): 19 mg/L (≈ 5.76 µM)

Compound: CC(=O)N[C@@H](CC(C)C)C(=O)N[C@@H](CCCCN)C(=O)N[C@@H](CCCNC(=N)N)C(=O)N[C@H](C(=O)N[C@@H](Cc1c[nH]c2ccccc12)C(=O)N[C@@H](CCCCN)C(=O)N[C@@H](CCCNC(=N)N)C(=O)N[C@@]1(C)CCC/C=C\CCC[C@@](C)(C(=O)N[C@@H](CCCCN)C(=O)N[C@@H](CCCNC(=N)N)C(=O)N[C@@H](Cc2ccc(O)cc2)C(=O)N[C@@H](Cc2c[nH]c3ccccc23)C(=O)N[C@@H](CCCNC(=N)N)C(=O)N[C@@H](CCC(N)=O)C(=O)N[C@@H](CC(C)C)C(=O)N[C@@H](CCCCN)C(=O)N[C@@H](CCCCN)C(=O)N2CCC[C@H]2C(=O)N[C@H](C(=O)N[C@@H](CCCNC(=N)N)C(N)=O)C(C)C)NC(=O)[C@H](CC(C)C)NC(=O)[C@H](CCCCN)NC(=O)[C@H](Cc2ccccc2)NC1=O)C(C)C (Ac-LKRVWKR[S5]FKL[S5]KRYWRQLKKPVR-NH2; staple (Z) 8-12)
- MIC (Klebsiella pneumoniae): 38 mg/L (≈ 11.5 µM)
- MIC (Staphylococcus aureus): 2.5 mg/L (≈ 0.756 µM)
- MIC (Pseudomonas aeruginosa): 5 mg/L (≈ 1.51 µM)
- MIC (Streptococcus pneumoniae): 37.7 mg/L (≈ 11.4 µM)

Compound: CC[C@@H]1NC(=O)[C@H](Cc2ccccc2)NC(=O)[C@H](C(C)C)NC(=O)[C@@](C)(NC(=O)[C@H](CCCCN)NC(=O)[C@H](Cc2c[nH]c3ccccc23)NC(=O)[C@@H](NC(=O)[C@H](CCCNC(=N)N)NC(=O)[C@H](CCCCN)NC(=O)[C@H](CC(C)C)NC(C)=O)C(C)C)CCC/C=C\CCC[C@@](C)(C(=O)N[C@@H](CC(C)C)C(=O)N[C@@H](CCCCN)C(=O)N[C@@H](CCCNC(=N)N)C(=O)N[C@@H](Cc2ccc(O)cc2)C(=O)N[C@@H](Cc2c[nH]c3ccccc23)C(=O)N[C@@H](CCCNC(=N)N)C(=O)N[C@@H](CCC(N)=O)C(=O)N[C@@H](CC(C)C)C(=O)N[C@@H](CCCCN)C(=O)N[C@@H](CCCCN)C(=O)N2CCC[C@H]2C(=O)N[C@H](C(=O)N[C@@H](CCCNC(=N)N)C(N)=O)C(C)C)NC1=O (Ac-LKRVWK[S5]VF[Abu][S5]LKRYWRQLKKPVR-NH2; staple (Z) 7-11)
- MIC (Klebsiella pneumoniae): 4.9 mg/L (≈ 1.53 µM)
- MIC (Staphylococcus aureus): 2.5 mg/L (≈ 0.78 µM)
- MIC (Pseudomonas aeruginosa): 5 mg/L (≈ 1.56 µM)
- MIC (Streptococcus pneumoniae): 19 mg/L (≈ 5.93 µM)
